This is an account of results in US20100099561A1, “HETEROBICYCLIC ALKYLTHIO-BRIDGED ISOXAZOLINES” (E.I. DU PONT DE NEMOURS AND COMPANY, priority 2008, published 2010).

Holding throughout (format): in vivo
In assay [1] the test system is morningglory (Ipomoea spp.). The experiment in a line: Test A preemergence, morningglory. The note with it: 0 to 100 scale (0 no effect, 100 complete control). The procedure, abridged:
(§1)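 Scores reflect visual plant injury on a 0 (no effect) to 100 (complete control) scale, assessed about ten days after application in the greenhouse. Compounds were delivered in a non-phytotoxic solvent blend with surfactant, either preemergence to soil or postemergence at one- to two-leaf stage.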

Assay [2] concerns rice (Oryza sativa). Put plainly: Test B flooded paddy test, rice. The note with it: Flood, scale 0 to 100. The procedure, abridged: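 2-leaf plants; pots flooded 3 cm above soil; compound added to paddy water; depth maintained. Greenhouse 13–15 d. Visual rating vs controls, 0 (no effect) to 100 (complete control); dash = no result.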
Assay [3] deals with corn (Zea mays). The experiment in a line: Test A preemergence, corn. The note with it: 0 to 100 scale (0 no effect, 100 complete control). The procedure, abridged: as §1
For assay [4], the system named is Russian thistle (Salsola kali). The experiment in a line: Test B preemergence, Russian thistle. The note with it: scale 0 to 100. The source says: (§2) Seeds of plant species selected from blackgrass (Alopecurus myosuroides), downy bromegrass (Bromus tectorum), green foxtail (Setaria viridis), Italian ryegrass (Lolium multiflorum), wheat (Triticum aestivum), wild oat (Avena fatua), catchweed bedstraw (Galium aparine), bermudagrass (Cynodon dactylon), Surinam grass (Brachiaria decumbens), cocklebur (Xanthium strumarium), corn (Zea mays), large crabgrass (Digitaria sanguinalis), woolly cupgrass (Eriochloa villosa), giant foxtail (Setaria faberii), goosegrass (Eleusine indica), johnsongrass (Sorghum halepense), kochia (Kochia scoparia), lambsquarters (Chenopodium album), morningglory (Ipomoea coccinea), nightshade (eastern black nightshade, Solanum ptycanthum), yellow nutsedge (Cyperus esculentus), pigweed (Amaranthus retroflexus), ragweed (common ragweed, Ambrosia elatior), soybean (Glycine max), sunflower (common oilseed sunflower, Helianthus annuus), Russian thistle (Salsola kali), and velvetleaf (Abutilon theophrasti) were planted into a blend of loam soil and sand and treated preemergence with test compounds formulated in a non-phytotoxic solvent mixture which included a surfactant. Treated plants and controls were maintained in a greenhouse for 13 to 15 days, after which time all species were compared to controls and visually evaluated. Plant response ratings, summarized in Table B, are based on a scale of 0 to 100 where 0 is no effect and 100 is complete control. A dash (-) response means no test result.

Assay [5] relates to kochia (Kochia scoparia). The experiment in a line: Test B preemergence, kochia. The note with it: scale 0 to 100.
Description: as §2

Assay [6] deals with large crabgrass (Digitaria sanguinalis). Put plainly: Test A postemergence, large crabgrass. The note with it: 0 to 100 scale (0 no effect, 100 complete control). The gist of the method: as §1

As for `CC1(C)CC(S(=O)(=O)Cc2c(C(F)(F)F)nc3n(c2=O)CCO3)=NO1` [Compound 2, 6-[[(4,5-dihydro-5,5-dimethyl-3-isoxazolyl)sulfonyl]methyl]-2,3-dihydro-7-(trifluoromethyl)-5H-oxazolo[3,2-α]pyrimidin-5-one], the “Plant response rating, Morningglory” value is listed as 0 in assay [1] (125 g ai/ha) and 80 in assay [1] (500 g ai/ha). In addition, the “Plant response rating, Rice” value in assay [2] (62 g ai/ha) and in assay [2] (250 g ai/ha) was 0 in each case. Moreover, the “Plant response rating, Corn” value in assay [3] (125 g ai/ha) amounted to 0; in assay [3] (500 g ai/ha), 50. The “Plant response rating, Russian Thistle” value in assay [4] (8 g ai/ha), in assay [4] (16 g ai/ha), in assay [4] (31 g ai/ha) and in assay [4] (62 g ai/ha) was 0 in each case. Besides, the “Plant response rating, Kochia” value in assay [5] (8 g ai/ha) was 0; in assay [5] (16 g ai/ha) it was 0; in assay [5] (31 g ai/ha) it was 75; in assay [5] (62 g ai/ha) it was 70. Besides, the “Plant response rating, Crabgrass, Large” value was determined as 60 in assay [6] (125 g ai/ha) and 90 in assay [6] (500 g ai/ha).
With `CC1(C)CC(S(=O)(=O)Cc2c(C(F)(F)F)nc3n(c2=O)CCC3)=NO1` [Compound 11, 3-[[(4,5-dihydro-5,5-dimethyl-3-isoxazolyl)sulfonyl]methyl]-7,8-dihydro-2-(trifluoromethyl)pyrrolo[1,2-α]pyrimidin-4(6H)-one], the “Plant response rating, Morningglory” value in assay [1] (125 g ai/ha) is listed as 30; in assay [1] (500 g ai/ha), 90. Also, the “Plant response rating, Rice” value came out at 0 in assay [2] (31 g ai/ha), 0 in assay [2] (62 g ai/ha), 25 in assay [2] (125 g ai/ha) and 25 in assay [2] (250 g ai/ha). Further, the “Plant response rating, Corn” value in assay [3] (125 g ai/ha) and in assay [3] (500 g ai/ha) was 0 each time. In addition, the “Plant response rating, Crabgrass, Large” value in assay [6] (125 g ai/ha) turned out to be 80; in assay [6] (500 g ai/ha), 90.
With `CC1(C)CC(S(=O)(=O)Cc2c(C(F)(F)F)nc3ccsn3c2=O)=NO1` [Compound 16], the figures for the “Plant response rating, Morningglory” value in assay [1] (125 g ai/ha) and in assay [1] (500 g ai/ha) were 70 and 80, respectively. Moreover, the “Plant response rating, Rice” value in assay [2] (62 g ai/ha) and in assay [2] (250 g ai/ha) was 0 each time. In addition, the “Plant response rating, Corn” value in assay [3] (125 g ai/ha) and in assay [3] (500 g ai/ha) was 0 throughout. The “Plant response rating, Kochia” value in assay [5] (16 g ai/ha), in assay [5] (31 g ai/ha), in assay [5] (62 g ai/ha) and in assay [5] (125 g ai/ha) was 0 in each case. In addition, the “Plant response rating, Crabgrass, Large” value stood at 80 in assay [6] (125 g ai/ha) and 90 in assay [6] (500 g ai/ha).
Consider `CC1(C)CC(S(=O)(=O)Cc2c(C(F)(F)Cl)nc3n(c2=O)CCC3)=NO1` [Compound 18], for which the figures for the “Plant response rating, Morningglory” value in assay [1] (125 g ai/ha) and in assay [1] (500 g ai/ha) were 0 and 50, respectively. In addition, the “Plant response rating, Rice” value in assay [2] (31 g ai/ha), in assay [2] (62 g ai/ha), in assay [2] (125 g ai/ha) and in assay [2] (250 g ai/ha) was 0 each time. In addition, the “Plant response rating, Corn” value in assay [3] (125 g ai/ha) and in assay [3] (500 g ai/ha) was 0 in each case. In addition, the “Plant response rating, Kochia” value in assay [5] (16 g ai/ha) is 0; in assay [5] (31 g ai/ha), 0; in assay [5] (62 g ai/ha) it was 55; in assay [5] (125 g ai/ha), 100. For the same compound, the “Plant response rating, Crabgrass, Large” value stood at 60 in assay [6] (125 g ai/ha) and 90 in assay [6] (500 g ai/ha).
`CC1(C)CC(S(=O)(=O)Cc2c(C(F)(F)C(F)(F)F)nc3n(c2=O)CCCC3)=NO1` [Compound 21]: the “Plant response rating, Morningglory” value is 0 in assay [1] (125 g ai/ha) and 50 in assay [1] (500 g ai/ha). In addition, the “Plant response rating, Rice” value in assay [2] (62 g ai/ha) and in assay [2] (250 g ai/ha) was 0 throughout. For the same compound, the “Plant response rating, Corn” value in assay [3] (125 g ai/ha) and in assay [3] (500 g ai/ha) was 0 each time. Moreover, the “Plant response rating, Russian Thistle” value turned out to be 0 in assay [4] (16 g ai/ha), 60 in assay [4] (31 g ai/ha), 65 in assay [4] (62 g ai/ha) and 85 in assay [4] (125 g ai/ha). Also, the “Plant response rating, Kochia” value in assay [5] (16 g ai/ha) was 0; in assay [5] (62 g ai/ha), 60; in assay [5] (125 g ai/ha) it was 80. In addition, the entries for the “Plant response rating, Crabgrass, Large” value in assay [6] (125 g ai/ha) and in assay [6] (500 g ai/ha) were 50 and 80, respectively.
For `CC1(C)CC(S(=O)(=O)Cc2c(C(F)(F)C(F)(F)F)nc3n(c2=O)CCC3)=NO1` [Compound 22], the results for the “Plant response rating, Morningglory” value in assay [1] (125 g ai/ha) and in assay [1] (500 g ai/ha) were 50 and 80, respectively. Besides, the figures for the “Plant response rating, Rice” value in assay [2] (62 g ai/ha) and in assay [2] (250 g ai/ha) were 0 and 10, respectively. Also, the “Plant response rating, Corn” value in assay [3] (125 g ai/ha) and in assay [3] (500 g ai/ha) was 0 each time. For the same compound, the “Plant response rating, Russian Thistle” value was 0 in assay [4] (31 g ai/ha), 30 in assay [4] (62 g ai/ha) and 60 in assay [4] (125 g ai/ha). For the same compound, the “Plant response rating, Kochia” value is on record as 0 in assay [5] (16 g ai/ha), 0 in assay [5] (31 g ai/ha), 0 in assay [5] (62 g ai/ha) and 70 in assay [5] (125 g ai/ha). In addition, the entries for the “Plant response rating, Crabgrass, Large” value in assay [6] (125 g ai/ha) and in assay [6] (500 g ai/ha) were 70 and 80, respectively.
